ChEMBL document CHEMBL1121574, “Third Smissman Award address: reminiscences and musings of a classical medicinal chemist” (J Med Chem, 1980)
Active and inactive are the calls of the source. The rule behind the calls is not given here.

Tests used:
[1] = Abstinence suppressant dose of the compound; assay type: functional
[2] = tested on: Monkey; assay: Physical dependence capacity at abstinence suppressant dose; Intermediate; assay type: functional, organism-based; conditions: Cercopithecidae
[3] = tested on: Monkey; assay: Physical dependence capacity at abstinence suppressant dose; Low; assay type: functional, organism-based; conditions: Cercopithecidae
[4] = Abstinence suppressant dose of the compound; range 0.5-12 mg/kg, no suppression; assay type: functional
[5] = tested on: Monkey; assay: Physical dependence capacity at abstinence suppressant dose; None; assay type: functional, organism-based; conditions: Cercopithecidae
[6] = Abstinence suppressant dose of the compound; range 2-12mg/kg, no suppression; assay type: functional
[7] = Abstinence suppressant dose of the compound; range 2-60 mg/kg, no suppression; assay type: functional
[8] = Abstinence suppressant dose of the compound; range 2-60 no suppression; assay type: functional
[9] = Abstinence suppressant dose of the compound; range 1-16 mg/kg, no suppression; assay type: functional
[10] = Abstinence suppressant dose of the compound; range 3-30 mg/kg, no suppression; assay type: functional
[11] = organism: Mus musculus; assay: Analgesic activity in mouse; assay type: functional
[12] = tested on: Monkey; assay: Physical dependence capacity at abstinence suppressant dose; High; assay type: functional, organism-based; conditions: Cercopithecidae
[13] = tested on: Monkey; assay: Physical dependence capacity at abstinence suppressant dose; low; assay type: functional, organism-based; conditions: Cercopithecidae
[14] = tested on: Monkey; assay: Physical dependence capacity at abstinence suppressant dose; Very low; assay type: functional, organism-based; conditions: Cercopithecidae
[15] = organism: Mus musculus; assay: The compound was tested for its analgesic activity in mouse; Inactive; assay type: functional, organism-based
[16] = tested on: Monkey; assay: Physical dependence capacity at abstinence suppressant dose; No; assay type: functional, organism-based; conditions: Cercopithecidae
[17] = tested on: Monkey; assay: Physical dependence capacity at abstinence suppressant dose; high; assay type: functional, organism-based; conditions: Cercopithecidae

CC[C@]12CCN(C)C(Cc3ccc(O)cc31)C2C (some centres undefined)
Dose [1]: 1 mg/kg
Physical dependence capacity [2]: Intermediate

CC1C2Cc3ccc(O)cc3[C@]1(C)CCN2C (some centres undefined)
Dose [1]: >18 mg/kg
Physical dependence capacity [3]: Low

CCC1C2Cc3ccc(O)cc3[C@]1(CC)CCN2C (some centres undefined)
Dose [4]: 0.5 mg/kg
Physical dependence capacity [5]: inactive

CC[C@H]1C2Cc3ccc(O)cc3[C@]1(C)CCN2C
Physical dependence capacity [5]: inactive
Dose [6]: 2 mg/kg

CN1CC[C@]2(C)CC1Cc1ccc(O)cc12 [listing 1 of 2 here]
Dose [7]: 2 mg/kg

CC[C@]12CCN(C)C(Cc3ccc(O)cc31)[C@@H]2C
Dose [1]: >40 mg/kg
Physical dependence capacity [3]: Low

C[C@H]1C2Cc3ccc(O)cc3[C@]1(C)CCN2C [listing 1 of 2 here]
Dose [1]: 24 mg/kg

CC[C@H]1C2Cc3ccc(O)cc3[C@]1(CC)CCN2C [listing 1 of 2 here]
Dose [8]: 2 mg/kg

CC[C@]12CCN(C)C(Cc3ccc(O)cc31)C2 [listing 1 of 2 here]
Dose [9]: 1 mg/kg

CCC[C@]12CCN(C)C(Cc3ccc(O)cc31)C2
Dose [10]: 3 mg/kg
Physical dependence capacity [5]: inactive

CC[C@H]1C2Cc3ccc(O)cc3[C@]1(CC)CCN2C [listing 2 of 2 here]
Physical dependence capacity [5]: inactive

CC[C@]12CCN(C)C(Cc3ccc(O)cc31)C2 [listing 2 of 2 here]
Physical dependence capacity [3]: Low

CN1CC[C@]2(C)CC1Cc1ccc(O)cc12 [listing 2 of 2 here]
Physical dependence capacity [5]: inactive

C[C@H]1C2Cc3ccc(O)cc3[C@]1(C)CCN2C [listing 2 of 2 here]
Physical dependence capacity [3]: Low

CN1CC[C@]2(C)CC1Cc1ccc(O)cc12 (single isomer, unassigned; (+)) [listing 1 of 2 here]
ED50 [11]: 22.9 mg/kg

CC[C@H]1C2Cc3ccc(O)cc3[C@]1(CC)CCN2C (single isomer, unassigned; (+)) [listing 1 of 2 here]
ED50 [11]: 7.5 mg/kg

CC[C@]12CCN(C)C(Cc3ccc(O)cc31)C2 (single isomer, unassigned; (+)) [listing 1 of 2 here]
ED50 [11]: 21.8 mg/kg

CCC[C@]12CCN(C)C(Cc3ccc(O)cc31)[C@@H]2C (single isomer, unassigned; (+)) [listing 1 of 2 here]
ED50 [11]: 12.3 mg/kg

CCC[C@]12CCN(C)C(Cc3ccc(O)cc31)[C@@H]2C (single isomer, unassigned; (+)) [listing 2 of 2 here]
Physical dependence capacity [12]: High

CC[C@H]1C2Cc3ccc(O)cc3[C@]1(CC)CCN2C (single isomer, unassigned; (+)) [listing 2 of 2 here]
Physical dependence capacity [2]: Intermediate

CC[C@]12CCN(C)C(Cc3ccc(O)cc31)C2 (single isomer, unassigned; (+)) [listing 2 of 2 here]
Physical dependence capacity [13]: Low

CN1CC[C@]2(C)CC1Cc1ccc(O)cc12 (single isomer, unassigned; (+)) [listing 2 of 2 here]
Physical dependence capacity [14]: Very low

C[C@H]1C2Cc3ccc(O)cc3[C@]1(C)CCN2C (single isomer, unassigned; (+))
ED50 [15]: inactive
Physical dependence capacity [16]: No dependance

CN1CC[C@]2(C)CC1Cc1ccc(O)cc12 (single isomer, unassigned; (-)) [listing 1 of 2 here]
ED50 [11]: 1.8 mg/kg

C[C@H]1C2Cc3ccc(O)cc3[C@]1(C)CCN2C (single isomer, unassigned; (-)) [listing 1 of 2 here]
ED50 ([11]; Mus musculus, read-out: ED50): 0.6 mg/kg

CC[C@H]1C2Cc3ccc(O)cc3[C@]1(CC)CCN2C (single isomer, unassigned; (-)) [listing 1 of 2 here]
ED50 [11]: 1.2 mg/kg

CC[C@]12CCN(C)C(Cc3ccc(O)cc31)C2 (single isomer, unassigned; (-)) [listing 1 of 2 here]
ED50 [11]: 0.6 mg/kg

CCC[C@]12CCN(C)C(Cc3ccc(O)cc31)[C@@H]2C (single isomer, unassigned; (-)) [listing 1 of 2 here]
ED50 [11]: 0.8 mg/kg

CCC[C@]12CCN(C)C(Cc3ccc(O)cc31)[C@@H]2C (single isomer, unassigned; (-)) [listing 2 of 2 here]
Physical dependence capacity [16]: No dependance

CC[C@H]1C2Cc3ccc(O)cc3[C@]1(CC)CCN2C (single isomer, unassigned; (-)) [listing 2 of 2 here]
Physical dependence capacity [16]: No dependance

CC[C@]12CCN(C)C(Cc3ccc(O)cc31)C2 (single isomer, unassigned; (-)) [listing 2 of 2 here]
Physical dependence capacity [16]: No dependance

CN1CC[C@]2(C)CC1Cc1ccc(O)cc12 (single isomer, unassigned; (-)) [listing 2 of 2 here]
Physical dependence capacity [3]: Low

C[C@H]1C2Cc3ccc(O)cc3[C@]1(C)CCN2C (single isomer, unassigned; (-)) [listing 2 of 2 here]
Physical dependence capacity [16]: No dependance

COc1ccc2c3c1O[C@H]1[C@@H](O)C=C[C@H]4[C@@H](C2)N(C)CC[C@@]341 [CODEINE]
ED50 ([11]; Mus musculus, read-out: ED50): 7.5 mg/kg
Physical dependence capacity [2]: Partially active

CN1CC[C@]23c4c5ccc(O)c4O[C@H]2[C@@H](O)C=C[C@H]3[C@H]1C5 [MORPHINE]
ED50 ([11]; Mus musculus, read-out: ED50): 1.2 mg/kg
Physical dependence capacity [17]: Active
